Measured values published in patent publication US10011592B2, “Polycyclic inhibitor of anaplastic lymphoma kinase” (XUANZHU PHARMA CO., LTD., priority 2014, dated 2018).
Like-named read-outs stand apart in the source and are kept apart here.

Tests used:
ALK kinase [1] = biological target: T1, ALK kinase (Homo sapiens, UniProt Q9UM73); assay: In vitro ALK kinase inhibitory activity by Caliper Mobility Shift assay; type: biochemical; conditions: Experimental Example 2, 28° C., 1 h, read-out: ALK enzyme-inhibiting activity IC50
Source text: Experimental method: Measurement of ALK kinase inhibitory activity by Caliper Mobility Shift assay.
1. Preparation of 1-Fold Kinase Buffer
2. Preparation of Stop Solution
3. Preparation of 5-Fold Test Compound Solutions:
Preparation of a DMSO stock solution of test compound: a suitable amount of compound (please see the following table for sample weight) was weighed, and dissolved by adding a suitable amount of DMSO. The resultant mixture was mixed homogeneously, for later usage.
Said DMSO stock solution of test compound was diluted with DMSO to a solution at a concentration of 50 μM, which was used as initial solution. Said initial solution was subjected to 4-fold gradient dilution with DMSO, and the solution at each concentration was 10-fold diluted with 1-fold kinase buffer to prepare a 5-fold test compound solution.
4. Preparation of Other Reagents:
2.5×ALK kinase solution and 2.5× polypeptide solution were prepared by using the 1-fold kinase buffer, for later usage.
1) 5 μL 5-fold test compound solution and 10 μL 2.5-fold kinase solution were added to the corresponding wells in a 384-well plate, and incubated at room temperature for 10 min.
The enzymatic reaction was started, and the incubation was performed at 28° C. for 1 h.
To the corresponding wells, 25 μL stop solution was added to stop the reaction. Data was read by Caliper device, and the inhibition rate was calculated by the data,
Inhibition rate (%)=(maximal value-sample value)/(maximal value-minimal value)×100, wherein XLFIT software was used in curve fitting to get IC50 value.
Maximal value: positive control without addition of test compound; minimal value: negative control without addition of enzyme.

NCI-H3122 = assay: In vitro cell activity, NCI-H3122, MTS detection; type: cell-based; conditions: Homo sapiens, read-out: cell-inhibiting activity IC50, NCI-H3122
Description: (§1) Cells were digested with pancreatin. After centrifugation at 1000 rpm for 4 min, the supernatant was removed. […] The cell suspension (90 μL) was seeded to a 96-well plate to obtain a final cell density of 3000 cells/well; and then cultured in a 5% CO2, 37° C. incubator for 24 h.
(§2) Preparation of test compound solutions: a suitable amount of test compound (please see the following table for sample weight) was weighed, and diluted gradiently with DMSO to prepare a series of stock solutions of different concentrations (1000×test compound solution). Each of said stock solutions was further diluted by 100 folds with medium to obtain a 10×test compound solution.
(§3) Solvent control: 0.1% DMSO.
(§4) Cell control: cell seeding only, with no addition of compound.
(§5) Blank control: medium, for zero setting in an instrument.
(§6) (3.3) The 96-well plate was cultured in a 37° C., 5% CO2 incubator for 72h.
(§7) (1) The reagents in CellTiter 96®AQueous One Solution Cell Proliferation Assay (MTS) were placed at room temperature for 90 min.
(§8) (2) To each test well in the 96-well plate, 20 μL CellTiter 96® A Queous One Solution reagent was added.
(§9) (3) The 96-well plate was cultured in a 37° C., 5% CO2 incubator for 40 min.
(§10) (4) The results were read by Microplate Reader at 490 nm.
(§11) IC50 calculation: cell survival rate (%)=(ODsample value−ODblank value)/(ODmaximal value−ODblank value)×100, wherein Graph prisim software is used in curve fitting to get IC50 value.
(§12) ODmaximal value: cell control with the addition of solvent and no compound, ODblank value: blank control value.

Karpas-299 = assay: In vitro cell activity, Karpas-299, MTS detection; type: cell-based; conditions: Homo sapiens, read-out: cell-inhibiting activity IC50, Karpas-299
Description: as §1, §2, §3, §4, §5, §6, §7, §8, §9, §10, §11, §12

ALK kinase [2] = biological target: T1, ALK kinase; assay: In vitro ALK kinase-inhibiting activity (SA-XL665/tyrosine kinase antibody, 665 nm/615 nm read); type: biochemical; conditions: Experimental Example 1; 25° C., 30 min enzymatic reaction; read-out: ALK enzyme-inhibiting activity IC50
Description: Preparation of ALK Kinase Buffer:
(§13) The resultant mixture was mixed homogeneously, for later usage.
as §13
Preparation of a stock solution of compound at a concentration of 1 mM: a suitable amount of compound (please see the following table for sample weight) was weighed, and dissolved by adding a suitable amount of DMSO. The resultant mixture was mixed homogeneously, for later usage.
Each of the 1 mM stock solutions was diluted with DMSO to a 200 μM solution, which was used as initial solution. Each of said initial solutions was 3-fold diluted with DMSO to prepare a series of solutions of different concentrations, and then the solution of each concentration was diluted with the ALK kinase buffer by 80 folds to prepare a 2.5×test compound solution.
Preparation of Other Reagents:
5×ALK kinase solution, 5×substrate solution, and 5×ATP solution, were prepared by using the ALK kinase buffer, for later usage.
1) 4 μL 2.5× test compound solution and 2 μL 5×ALK kinase solution were added to the corresponding wells in a 384-well plate, respectively, and incubated at 25° C. for 10 min.
2) To the corresponding wells, 2 μL 5× substrate solution and 2 μL 5×ATP solution were further added to start the enzymatic reaction, and incubation was performed at 25° C. for 30 min.
Detection buffer was used to prepare SA-XL665 at a desired concentration, which was then mixed homogeneously with the same volume of tyrosine kinase antibody. To the corresponding wells, 10 μL said antibody solution was added, and the reaction was stopped. Incubation was performed at 25° C. for 1 h.
IC50: Inhibition rate (%)=(maximal value-sample value)/(maximal value-minimal value)×100, wherein Graph prism software was used in curve fitting to get IC50 value.
Maximal value: positive control without addition of compound; minimal value: negative control without addition of enzyme.

NCI-H2228 = assay: In vitro cell activity, NCI-H2228, CTG detection; type: cell-based; conditions: Homo sapiens, read-out: cell-inhibiting activity IC50, NCI-H2228
Description: Cells were digested with pancreatin. After centrifugation at 1000 rpm for 4 min, the supernatant was removed. […] The cell suspension (100 μL) was seeded to a 96-well plate to obtain a final cell density of 2000 cells/well.
(3.1) Preparation of test compound solutions: a suitable amount of test compound (please see the following table for sample weight) was weighed, and dissolved by adding a suitable amount of DMSO. The resultant mixture was mixed homogeneously, and diluted gradiently with DMSO to prepare a series of solutions of different concentrations, for later usage.
Solvent control: 0.5% DMSO.
as §4, §5
(3.3) The 96-well plate was cultured in a 37° C., 5% CO2 incubator for 96 h.
(1) 80 μL medium was removed from each well in the 96-well plate, and the plate was placed at room temperature for 30 min.
(2) 60 μL CellTiter-Glo® reagent was added to each test well in the 96-well plate.
(3) The 96-well plate was shaken for 2 min in dark to mix the mixture homogeneously in a microplate shaker, so as to lyse the cells.
(4) The 96-well plate was incubated in dark at room temperature for 10 min, to keep the light signal value stable.
(5) The results were read by Microplate Reader in luminescence mode.
IC50 calculation: cell inhibition rate (%)=(ODmaximal value−ODcompound)/(ODmaximal value−ODblank value)×100, wherein Graph prisim software is used in curve fitting to get IC50 value.
ODmaximal value: cell control with the addition of solvent and no compound, ODblank value: medium blank control.

Pharmacokinetics in rat = type: in vivo; conditions: plasma, iv 2 mg/kg, po 5 mg/kg
Description: Experimental Example 6 Assay on Pharmacokinetics of the Compounds Provided in Examples of the Invention in Rat
Test compounds: Compound 4, lab-made, the chemical name and preparation method of which can be found in the preparation example.
Internal standard: Alectinib, lab-made (prepared by reference to the method in Patent CN102459172A).
0.1% Tween 80+2% HPC: HPC (hydroxypropyl cellulose) (20 g) was weighed, and was added slowly to purified water (1000 mL) under stirring; Tween 80 (1 mL) was then added, and the resultant mixture was stirred until a clear solution was obtained, i.e. a blank solvent of 0.1% Tween 80+2% HPC.
A suitable amount of test compound (please see the following table for sample weight) was weighed, and said prepared solvent was added. The resultant mixture was placed in a tissue grinder, and was dispersed homogeneously at a rotation speed of 1000 r/min to get a solution for intragastric administration. […]
Protein precipitation method: to 30 μL plasma, 200 μL internal standard (acetonitrile solution containing 50 ng/mL Alectinib) was added; the resultant mixture was vortexed at 1000 r/min for 10 min, and then centrifuged at 4000 r/min for 20 min; to 100 μL supernatant, 100 μL water was added; the resultant mixture was mixed homogeneously under vortexing and analyzed by LC-MS/MS.

T1 sequence (Q9UM73 19-1620): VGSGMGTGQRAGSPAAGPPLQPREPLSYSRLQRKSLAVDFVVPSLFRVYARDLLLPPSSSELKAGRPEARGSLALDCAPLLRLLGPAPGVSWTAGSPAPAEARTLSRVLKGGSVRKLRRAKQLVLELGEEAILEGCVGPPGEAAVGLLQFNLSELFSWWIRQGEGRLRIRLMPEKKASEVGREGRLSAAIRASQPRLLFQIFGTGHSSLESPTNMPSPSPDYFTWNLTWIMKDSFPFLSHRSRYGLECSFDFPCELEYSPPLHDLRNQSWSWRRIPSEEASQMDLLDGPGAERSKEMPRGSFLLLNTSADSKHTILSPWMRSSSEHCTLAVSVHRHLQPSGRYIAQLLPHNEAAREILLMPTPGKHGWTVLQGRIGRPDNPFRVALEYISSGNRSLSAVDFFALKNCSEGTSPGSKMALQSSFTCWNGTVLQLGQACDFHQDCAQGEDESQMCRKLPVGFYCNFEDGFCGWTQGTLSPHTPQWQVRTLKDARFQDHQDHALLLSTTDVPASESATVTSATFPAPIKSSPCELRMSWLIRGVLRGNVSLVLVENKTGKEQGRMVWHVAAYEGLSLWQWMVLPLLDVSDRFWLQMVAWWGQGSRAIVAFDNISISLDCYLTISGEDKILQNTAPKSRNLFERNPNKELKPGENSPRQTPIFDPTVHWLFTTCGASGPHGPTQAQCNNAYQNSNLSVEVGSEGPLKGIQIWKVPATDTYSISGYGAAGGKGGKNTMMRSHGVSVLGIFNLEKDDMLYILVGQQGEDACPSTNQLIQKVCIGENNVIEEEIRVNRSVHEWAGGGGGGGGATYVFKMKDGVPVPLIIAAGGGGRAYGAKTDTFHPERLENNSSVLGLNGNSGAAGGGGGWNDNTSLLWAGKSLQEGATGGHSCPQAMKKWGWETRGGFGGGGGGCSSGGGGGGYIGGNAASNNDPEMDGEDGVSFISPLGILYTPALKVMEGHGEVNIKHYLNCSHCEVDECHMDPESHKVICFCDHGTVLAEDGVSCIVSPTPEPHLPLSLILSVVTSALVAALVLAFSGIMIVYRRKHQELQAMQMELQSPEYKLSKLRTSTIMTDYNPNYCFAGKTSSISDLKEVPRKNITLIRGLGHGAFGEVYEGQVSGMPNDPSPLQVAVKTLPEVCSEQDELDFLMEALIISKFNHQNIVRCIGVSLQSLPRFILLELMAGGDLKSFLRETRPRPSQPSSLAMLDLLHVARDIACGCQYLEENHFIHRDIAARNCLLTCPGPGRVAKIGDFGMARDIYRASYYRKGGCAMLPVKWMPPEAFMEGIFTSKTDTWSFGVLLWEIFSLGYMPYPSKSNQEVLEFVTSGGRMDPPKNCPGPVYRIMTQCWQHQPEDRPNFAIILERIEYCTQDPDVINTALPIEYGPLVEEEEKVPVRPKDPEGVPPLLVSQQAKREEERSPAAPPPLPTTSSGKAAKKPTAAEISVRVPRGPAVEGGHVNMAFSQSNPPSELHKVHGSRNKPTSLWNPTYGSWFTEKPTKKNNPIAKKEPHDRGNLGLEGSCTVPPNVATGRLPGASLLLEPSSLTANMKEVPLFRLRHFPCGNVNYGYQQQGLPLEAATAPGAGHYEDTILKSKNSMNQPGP

Row | Compound | IC50 (ALK kinase [1]) [nM] | IC50 (NCI-H3122; NCI-H3122, 72 h, MTS) [nM] | IC50 (Karpas-299; KARPAS-299, 72 h, MTS) [nM] | IC50 (ALK kinase [2]) [nM] | IC50 (NCI-H2228; NCI-H2228, 96 h, CTG) [nM] | bioavailability (Pharmacokinetics in rat) [%] | IC50 (NCI-H3122; NCI-H3122, 72 h) [nM] | IC50 (NCI-H2228; NCI-H2228, 96 h) [nM] | IC50 (Karpas-299; KARPAS-299, 72 h) [nM]
1 | Cc1cc(Nc2ncc(Cl)c(Nc3ccccc3S(=O)(=O)N(C)C)n2)c2c(c1C1CCNCC1)OCCO2 [Compound 3, 2-((5-chloro-2-((7-methyl-8-(piperidin-4-yl)-2,3-dihydrobenzo[b][1,4]dioxin-5-yl)amino)pyrimidin-4-yl)amino)-N,N-dimethylbenzenesulfonamide] |  | 43.2 | 0.164 | 0.6 | 1.72 |  |  |  | 
2 | Cc1cc(Nc2ncc(Cl)c(Nc3ccccc3S(=O)(=O)C(C)C)n2)c(OC(C)C)cc1C1CCNCC1 [Ceritinib, reference compound] |  |  |  |  |  |  | 138 | 48.1 | 30
3 | Cc1cc(Nc2ncc(Cl)c(Nc3ccccc3S(=O)(=O)N(C)C)n2)c2c(c1C1CCNCC1)OCO2 [Compound 2, 2-((5-chloro-2-((6-methyl-7-(piperidin-4-yl)benzol[d][1,3]dioxol-4-yl)amino)pyrimidin-4-yl)amino)-N,N-dimethylbenzenesulfonamide] |  | 4.18 | 7.66 | 1.7 | 5.47 |  |  |  | 
4 | Cc1cc(Nc2ncc(Cl)c(Nc3ccccc3S(=O)(=O)C(C)C)n2)c2c(c1C1CCNCC1)OCO2 [Compound 1, 5-chloro-N^4-(2-(isopropylsulfonyl)phenyl)-N^2-(6-methyl-7-(piperidin-4-yl)benzo[d][1,3]dioxol-4-yl)pyrimidine-2,4-diamine] |  | 10.9 | 0.7 | 0.2 | 3.21 |  |  |  | 

Further lines, with some results ahead:

Row | IC50 (ALK kinase [1]) [nM] | IC50 (NCI-H3122; NCI-H3122, 72 h, MTS) [nM] | IC50 (Karpas-299; KARPAS-299, 72 h, MTS) [nM] | IC50 (ALK kinase [2]) [nM] | IC50 (NCI-H2228; NCI-H2228, 96 h, CTG) [nM] | bioavailability (Pharmacokinetics in rat) [%] | Compound | IC50 (NCI-H3122; NCI-H3122, 72 h) [nM] | IC50 (NCI-H2228; NCI-H2228, 96 h) [nM] | IC50 (Karpas-299; KARPAS-299, 72 h) [nM]
5 | 0.54 | 16.1 | 5.18 |  |  |  | Cc1cc(Nc2ncc(Cl)c(Nc3ccccc3S(=O)(=O)C(C)C)n2)c2c(c1C1=CCNCC1)CCCO2 [Compound 8, 5-chloro-N^4-(2-(isopropylsulfonyl)phenyl)-N^2-(6-methyl-5-(1,2,3,6-tetrahydropyridine-4-yl)chroman-8-yl)pyrimidine-2,4-diamine] |  |  | 
6 | 0.45 | 61.7 | 9.92 |  |  |  | Cc1cc(Nc2ncc(Cl)c(Nc3ccccc3S(=O)(=O)C(C)C)n2)c2c(c1C1CNC1)OCCO2 [Compound 6, N^2-(8-(azetidin-3-yl)-7-methyl-2,3-dihydrobenzo[b][1,4]dioxin-5-yl)-5-chloro-N^4-(2-(isopropylsulfonyl)phenyl)pyrimidine-2,4-diamine] |  |  | 
7 |  | 130 | 0.71 | 0.9 | 15.1 | 30 to 50 | Cc1cc(Nc2ncc(Cl)c(Nc3ccccc3S(=O)(=O)C(C)C)n2)c2c(c1C1CCNCC1)OCCO2 [Compound 4, 5-chloro-N^4-(2-(isopropylsulfonyl)phenyl)-N^2-(7-methyl-8-(piperidin-4-yl)-2,3-dihydrobenzo[b][1,4]dioxin-5-yl)pyrimidine-2,4-diamine] |  |  | 
8 | 0.36 | 25.1 | 5.36 |  | 7.41 |  | Cc1cc(Nc2ncc(Cl)c(Nc3ccccc3S(=O)(=O)C(C)C)n2)c2c(c1C1CCNC1)OCCO2 (stereo not drawn) [Compound 5, 5-chloro-N^4-(2-(isopropylsulfonyl)phenyl)-N^2-(7-methyl-8-(pyrrolidin-3-yl)-2,3-dihydrobenzo[b][1,4]dioxin-5-yl)pyrimidine-2,4-diamine] |  |  | 
